Measured values from patent publication US10829501B2 (BRISTOL-MYERS SQUIBB COMPANY, priority 2016, dated 2020).

Molecular target: ROCK2 (Homo sapiens, UniProt O75116)
Assay: ROCK2 kinase inhibition assay (LABCHIP 3000 Reader, FITC peptide substrate);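 further: rho kinase reaction read by separating phosphorylated from unphosphorylated peptide on chip, with inhibition of kinase activity computed per concentration across a dose-response series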

Chain of ROCK2 (O75116 whole entry, species assumed): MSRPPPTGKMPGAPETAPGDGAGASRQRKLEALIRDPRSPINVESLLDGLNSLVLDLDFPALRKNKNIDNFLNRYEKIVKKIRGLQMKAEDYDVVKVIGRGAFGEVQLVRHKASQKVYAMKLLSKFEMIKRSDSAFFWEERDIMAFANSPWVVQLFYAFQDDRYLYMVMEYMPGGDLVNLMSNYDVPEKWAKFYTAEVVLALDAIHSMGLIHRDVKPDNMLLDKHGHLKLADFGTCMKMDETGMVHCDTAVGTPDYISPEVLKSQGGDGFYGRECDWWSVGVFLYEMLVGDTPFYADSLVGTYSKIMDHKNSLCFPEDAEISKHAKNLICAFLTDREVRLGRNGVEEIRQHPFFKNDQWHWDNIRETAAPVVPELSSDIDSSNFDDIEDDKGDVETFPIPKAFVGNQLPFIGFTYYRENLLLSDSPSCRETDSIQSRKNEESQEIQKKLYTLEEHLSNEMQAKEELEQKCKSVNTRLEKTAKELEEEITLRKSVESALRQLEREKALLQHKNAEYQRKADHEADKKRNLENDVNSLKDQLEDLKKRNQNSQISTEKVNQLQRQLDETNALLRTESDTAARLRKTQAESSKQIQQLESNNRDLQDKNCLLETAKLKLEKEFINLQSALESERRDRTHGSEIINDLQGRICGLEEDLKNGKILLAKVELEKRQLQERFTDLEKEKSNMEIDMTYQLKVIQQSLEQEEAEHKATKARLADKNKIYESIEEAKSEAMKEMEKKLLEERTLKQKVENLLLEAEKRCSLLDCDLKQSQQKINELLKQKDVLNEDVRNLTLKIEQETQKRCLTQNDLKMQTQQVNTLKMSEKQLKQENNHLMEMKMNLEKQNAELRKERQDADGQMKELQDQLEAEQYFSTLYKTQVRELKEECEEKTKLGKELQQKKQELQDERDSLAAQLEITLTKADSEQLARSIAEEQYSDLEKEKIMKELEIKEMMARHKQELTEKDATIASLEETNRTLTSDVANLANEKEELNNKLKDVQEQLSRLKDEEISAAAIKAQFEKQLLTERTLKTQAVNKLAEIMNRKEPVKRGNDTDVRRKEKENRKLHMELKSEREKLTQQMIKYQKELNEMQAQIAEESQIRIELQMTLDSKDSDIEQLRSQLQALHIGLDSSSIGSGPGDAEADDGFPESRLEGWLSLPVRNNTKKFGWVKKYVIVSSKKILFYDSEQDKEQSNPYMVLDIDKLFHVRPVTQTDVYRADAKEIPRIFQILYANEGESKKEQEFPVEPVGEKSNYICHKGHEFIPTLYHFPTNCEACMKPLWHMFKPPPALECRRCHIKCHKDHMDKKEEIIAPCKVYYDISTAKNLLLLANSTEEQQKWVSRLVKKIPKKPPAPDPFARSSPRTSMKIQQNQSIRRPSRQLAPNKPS

Row | SMILES | IC50 [nM]
1 | Cc1cccc(C(N)=O)c1OC1CC2(CC(NC(=O)c3cnn4c(C5CC5)c(OCC(C)(C)O)ccc34)C2)C1 (stereo not shown) [Example 214, N-(6-(2-carbamoyl-6-methylphenoxy)spiro[3.3]heptan-2-yl)-7-cyclopropyl-6-(2-hydroxy-2-methylpropoxy)pyrazolo[1,5-a]pyridine-3-carboxamide] | 250 to 2500
2 | Cc1ccc(C(N)=O)c(OC2CC3(CC(NC(=O)c4cnn5cc(OCC(C)(C)O)ccc45)C3)C2)c1 (stereo not shown) [Example 215, N-(6-(2-carbamoyl-5-methylphenoxy)spiro[3.3]heptan-2-yl)-6-(2-hydroxy-2-methylpropoxy)pyrazolo[1,5-a]pyridine-3-carboxamide] | 5 to 50
3 | Cc1ccc(OC2CC3(CC(NC(=O)c4cnn5c(C6CC6)c(OCC(C)(C)O)ccc45)C3)C2)c(C(N)=O)c1 (stereo not shown) [Example 216, N-(6-(2-carbamoyl-4-methylphenoxy)spiro[3.3]heptan-2-yl)-7-cyclopropyl-6-(2-hydroxy-2-methylpropoxy)pyrazolo[1,5-a]pyridine-3-carboxamide] | 5 to 50
4 | Cc1ccc(C(N)=O)c(OC2CC3(CC(NC(=O)c4cnn5c(C6CC6)c(OCC(C)(C)O)ccc45)C3)C2)c1 (stereo not shown) [Example 217, N-(6-(2-carbamoyl-5-methylphenoxy)spiro[3.3]heptan-2-yl)-7-cyclopropyl-6-(2-hydroxy-2-methylpropoxy)pyrazolo[1,5-a]pyridine-3-carboxamide] | < 5
5 | Cc1ccc(OC2CC3(CC(NC(=O)c4cnn5cc(OCC(C)(C)O)ccc45)C3)C2)c(C(N)=O)c1 (stereo not shown) [Example 218, N-(6-(2-carbamoyl-4-methylphenoxy)spiro[3.3]heptan-2-yl)-6-(2-hydroxy-2-methylpropoxy)pyrazolo[1,5-a]pyridine-3-carboxamide] | 250 to 2500
6 | CC(C)(O)COc1ccc2c(C(=O)NC3CC4(C3)CC(Oc3cc(OC(F)F)ccc3C(N)=O)C4)cnn2c1 (stereo not shown) [Example 219, N-(6-(2-carbamoyl-5-(difluoromethoxy)phenoxy)spiro[3.3]heptan-2-yl)-6-(2-hydroxy-2-methylpropoxy)pyrazolo[1,5-a]pyridine-3-carboxamide] | 5 to 50
7 | CC(C)(O)COc1ccc2c(C(=O)NC3CC4(C3)CC(Oc3cc(Cl)ccc3C(N)=O)C4)cnn2c1 (stereo not shown) [Example 220, N-(6-(2-carbamoyl-5-chlorophenoxy)spiro[3.3]heptan-2-yl)-6-(2-hydroxy-2-methylpropoxy)pyrazolo[1,5-a]pyridine-3-carboxamide] | 5 to 50
8 | CC(C)(O)COc1ccc2c(C(=O)NC3CC4(C3)CC(Oc3cc(-n5ccnc5)ccc3C(N)=O)C4)cnn2c1 (stereo not shown) [Example 221] | 50 to 250
9 | CC(C)(O)COc1ccc2c(C(=O)NC3CC4(C3)CC(Oc3cc(-c5ncccn5)ccc3C(N)=O)C4)cnn2c1 (stereo not shown) [Example 222, N-(6-(2-carbamoyl-5-(pyrimidin-2-yl)phenoxy)spiro[3.3]heptan-2-yl)-6-(2-hydroxy-2-methylpropoxy)pyrazolo[1,5-a]pyridine-3-carboxamide] | 5 to 50
10 | CC(C)(O)COc1ccc2c(C(=O)NC3CC4(C3)CC(Oc3cc(-n5cccn5)ccc3C(N)=O)C4)cnn2c1 (stereo not shown) [Example 223, N-(6-(2-carbamoyl-5-(1H-pyrazol-1-yl)phenoxy)spiro[3.3]heptan-2-yl)-6-(2-hydroxy-2-methylpropoxy)pyrazolo[1,5-a]pyridine-3-carboxamide] | 5 to 50
11 | CN1CCN(c2ccc(C(N)=O)c(OC3CC4(CC(NC(=O)c5cnn6cc(OCC(C)(C)O)ccc56)C4)C3)c2)CC1 (stereo not shown) [Example 224, N-(6-(2-carbamoyl-5-(4-methylpiperazin-1-yl)phenoxy)spiro[3.3]heptan-2-yl)-6-(2-hydroxy-2-methylpropoxy)pyrazolo[1,5-a]pyridine-3-carboxamide] | 5 to 50
12 | CC(C)(O)COc1ccc2c(C(=O)NC3CC4(C3)CC(Oc3cc(-c5ccncc5)ccc3C(N)=O)C4)cnn2c1 (stereo not shown) [Example 225, N-(6-(2-carbamoyl-5-(pyridin-4-yl)phenoxy)spiro[3.3]heptan-2-yl)-6-(2-hydroxy-2-methylpropoxy)pyrazolo[1,5-a]pyridine-3-carboxamide] | 5 to 50
13 | CC(C)(O)COc1ccc2c(C(=O)NC3CC4(C3)CC(Oc3cc(C5CNC5)ccc3C(N)=O)C4)cnn2c1 (stereo not shown) [Example 226, N-(6-(5-(azetidin-3-yl)-2-carbamoylphenoxy)spiro[3.3]heptan-2-yl)-6-(2-hydroxy-2-methylpropoxy)pyrazolo[1,5-a]pyridine-3-carboxamide] | 50 to 250
14 | CC(C)(O)COc1ccc2c(C(=O)NC3CC4(C3)CC(Oc3cc(N5CCCC5)ccc3C(N)=O)C4)cnn2c1 (stereo not shown) [Example 227, N-(6-(2-carbamoyl-5-(pyrrolidin-1-yl)phenoxy)spiro[3.3]heptan-2-yl)-6-(2-hydroxy-2-methylpropoxy)pyrazolo[1,5-a]pyridine-3-carboxamide] | 5 to 50
15 | CC(C)(O)COc1ccc2c(C(=O)NC3CC4(C3)CC(Oc3cc(-c5ccccc5C(F)(F)F)ccc3C(N)=O)C4)cnn2c1 (stereo not shown) [Example 228, N-(6-((4-carbamoyl-2′-(trifluoromethyl)-[1,1′-biphenyl]-3-yl)oxy)spiro[3.3]heptan-2-yl)-6-(2-hydroxy-2-methylpropoxy)pyrazolo[1,5-a]pyridine-3-carboxamide] | 50 to 250
16 | CC(C)(O)COc1ccc2c(C(=O)NC3CC4(C3)CC(Oc3cc(-c5ccccc5F)ccc3C(N)=O)C4)cnn2c1 (stereo not shown) [Example 229, N-(6-((4-carbamoyl-2′-fluoro-[1,1′-biphenyl]-3-yl)oxy)spiro[3.3]heptan-2-yl)-6-(2-hydroxy-2-methylpropoxy)pyrazolo[1,5-a]pyridine-3-carboxamide] | 5 to 50
17 | CC(C)(O)COc1ccc2c(C(=O)NC3CC4(C3)CC(Oc3cc(N5CCOCC5)ccc3C(N)=O)C4)cnn2c1 (stereo not shown) [Example 230, N-(6-(2-carbamoyl-5-morpholinophenoxy)spiro[3.3]heptan-2-yl)-6-(2-hydroxy-2-methylpropoxy)pyrazolo[1,5-a]pyridine-3-carboxamide] | 50 to 250
18 | CC(C)(O)COc1ccc2c(C(=O)NC3CC4(C3)CC(Oc3cc(-c5cccc(F)n5)ccc3C(N)=O)C4)cnn2c1 (stereo not shown) [Example 231, N-(6-(2-carbamoyl-5-(6-fluoropyridin-2-yl)phenoxy)spiro[3.3]heptan-2-yl)-6-(2-hydroxy-2-methylpropoxy)pyrazolo[1,5-a]pyridine-3-carboxamide] | < 5
19 | COC(=O)c1cncc(-c2ccc(C(N)=O)c(OC3CC4(CC(NC(=O)c5cnn6cc(OCC(C)(C)O)ccc56)C4)C3)c2)c1 (stereo not shown) [Example 232, methyl 5-(4-carbamoyl-3-((6-(6-(2-hydroxy-2-methylpropoxy)pyrazolo[1,5-a]pyridine-3-carboxamido)spiro[3.3]heptan-2-yl)oxy)phenyl)nicotinate] | 5 to 50
20 | COCCOC(=O)Nc1ccc(-c2ccc(C(N)=O)c(OC3CC4(CC(NC(=O)c5cnn6cc(OCC(C)(C)O)ccc56)C4)C3)c2)cn1 (stereo not shown) [Example 233, 2-methoxyethyl (5-(4-carbamoyl-3-((6-(6-(2-hydroxy-2-methylpropoxy)pyrazolo[1,5-a]pyridine-3-carboxamido)spiro[3.3]heptan-2-yl)oxy)phenyl)pyridin-2-yl)carbamate] | 5 to 50
21 | CC(C)(O)COc1ccc2c(C(=O)NC3CC4(C3)CC(Oc3cc(-c5ccc(C(C)(C)O)nc5)ccc3C(N)=O)C4)cnn2c1 (stereo not shown) [Example 234, N-(6-(2-carbamoyl-5-(6-(2-hydroxypropan-2-yl)pyridin-3-yl)phenoxy)spiro[3.3]heptan-2-yl)-6-(2-hydroxy-2-methylpropoxy)pyrazolo[1,5-a]pyridine-3-carboxamide] | 50 to 250
22 | COc1cccc(-c2ccc(C(N)=O)c(OC3CC4(CC(NC(=O)c5cnn6cc(OCC(C)(C)O)ccc56)C4)C3)c2)n1 (stereo not shown) [Example 235, N-(6-(2-carbamoyl-5-(6-methoxypyridin-2-yl)phenoxy)spiro[3.3]heptan-2-yl)-6-(2-hydroxy-2-methylpropoxy)pyrazolo[1,5-a]pyridine-3-carboxamide] | 5 to 50
23 | CC(C)(O)COc1ccc2c(C(=O)NC3CC4(C3)CC(Oc3cc(-c5cccc(N)n5)ccc3C(N)=O)C4)cnn2c1 (stereo not shown) [Example 236, N-(6-(5-(6-aminopyridin-2-yl)-2-carbamoylphenoxy)spiro[3.3]heptan-2-yl)-6-(2-hydroxy-2-methylpropoxy)pyrazolo[1,5-a]pyridine-3-carboxamide] | 5 to 50
24 | CC(C)(O)COc1ccc2c(C(=O)NC3CC4(C3)CC(Oc3cc(-c5ccccn5)ccc3C(N)=O)C4)cnn2c1 (stereo not shown) [Example 237, N-(6-(2-carbamoyl-5-(pyridin-2-yl)phenoxy)spiro[3.3]heptan-2-yl)-6-(2-hydroxy-2-methylpropoxy)pyrazolo[1,5-a]pyridine-3-carboxamide] | 5 to 50
25 | CC(C)(O)COc1ccc2c(C(=O)NC3CC4(C3)CC(Oc3cc(-c5cccc(OCC(F)(F)F)c5)ccc3C(N)=O)C4)cnn2c1 (stereo not shown) [Example 238, N-(6-((4-carbamoyl-3′-(2,2,2-trifluoroethoxy)-[1,1′-biphenyl]-3-yl)oxy)spiro[3.3]heptan-2-yl)-6-(2-hydroxy-2-methylpropoxy)pyrazolo[1,5-a]pyridine-3-carboxamide] | 50 to 250
26 | COc1cccc(-c2ccc(C(N)=O)c(OC3CC4(CC(NC(=O)c5cnn6cc(OCC(C)(C)O)ccc56)C4)C3)c2)c1 (stereo not shown) [Example 239, N-(6-((4-carbamoyl-3′-methoxy-[1,1′-biphenyl]-3-yl)oxy)spiro[3.3]heptan-2-yl)-6-(2-hydroxy-2-methylpropoxy)pyrazolo[1,5-a]pyridine-3-carboxamide] | 5 to 50
27 | CC(C)(O)COc1ccc2c(C(=O)NC3CC4(C3)CC(Oc3cc(-c5cccc(O)c5)ccc3C(N)=O)C4)cnn2c1 (stereo not shown) [Example 240, N-(6-((4-carbamoyl-3′-hydroxy-[1,1′-biphenyl]-3-yl)oxy)spiro[3.3]heptan-2-yl)-6-(2-hydroxy-2-methylpropoxy)pyrazolo[1,5-a]pyridine-3-carboxamide] | 5 to 50
28 | CC(C)(O)COc1ccc2c(C(=O)NC3CC4(C3)CC(Oc3cc(-c5cccc(C(F)F)c5)ccc3C(N)=O)C4)cnn2c1 (stereo not shown) [Example 241, N-(6-((4-carbamoyl-3′-(difluoromethyl)-[1,1′-biphenyl]-3-yl)oxy)spiro[3.3]heptan-2-yl)-6-(2-hydroxy-2-methylpropoxy)pyrazolo[1,5-a]pyridine-3-carboxamide] | 5 to 50
